Data: publication PMC10808066, “The CRISPR effector Cam1 mediates membrane depolarization for phage defence” (Nature, 2024)
Where “and” joins values, the source holds several entries; their conditions need not be identical. Equal values may be shown once.

Legend:
[1] = target: T1, NhCam1 (cyclic oligoadenylate-activated membrane protein 1; WP_013033759) (Nitrosococcus halophilus, UniProt D5BXZ3); assay: ITC; […] Å X-ray crystal structure; type: binding
T1 construct: gene Nhal_2839; CARF domain, residues 67–206 (ITC; Methods: 66–206); residues 42–206 (crystal); homodimer, one ligand per dimer
T1 sequence (D5BXZ3 67-206): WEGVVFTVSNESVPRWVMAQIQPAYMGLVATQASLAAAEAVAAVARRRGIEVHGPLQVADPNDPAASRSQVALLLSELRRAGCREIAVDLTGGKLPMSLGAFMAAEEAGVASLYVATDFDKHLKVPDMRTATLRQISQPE

[2] = target: T2, NhCam1 (cyclic oligoadenylate-activated membrane protein 1; WP_013033759) (Nitrosococcus halophilus, UniProt D5BXZ3, T97A); assay: ITC; type: binding
T2 construct: gene Nhal_2839; CARF domain, residues 67–206

[3] = target: T3, NhCam1 (cyclic oligoadenylate-activated membrane protein 1; WP_013033759) (Nitrosococcus halophilus, UniProt D5BXZ3, N76A/S75A); assay: ITC; type: binding
T3 construct: gene Nhal_2839; CARF domain, residues 67–206

[4] = target: T4, NhCam1 (cyclic oligoadenylate-activated membrane protein 1; WP_013033759) (Nitrosococcus halophilus, UniProt D5BXZ3, T183A/Y180A); assay: ITC; type: binding
T4 construct: gene Nhal_2839; CARF domain, residues 67–206

[5] = target: T5, NhCam1 (cyclic oligoadenylate-activated membrane protein 1; WP_013033759) (Nitrosococcus halophilus, UniProt D5BXZ3, M194A/P192A/V79A); assay: ITC; type: binding
T5 construct: gene Nhal_2839; CARF domain, residues 67–206

[6] = target: MGSS–His6–TEV–NhCam1 (full-length NhCam1) (Nitrosococcus halophilus Nc4); assay: SEC-MALS; full-length Cam1 in DDM micelles, conjugate analysis; 25 mM Tris pH 8, 500 mM NaCl, 2 mM β-mercaptoethanol, 0.02% DDM
[7] = target: MvCam1-His (Methylomarium vadi); assay: cross-linking; in vivo in S. aureus, 2 mM DSS and BMH, 1 h at room temperature, with or without aTc; Western blot of lysates with anti-His6
[8] = target: NhCam1–His (Nitrosococcus halophilus Nc4); assay: as above
[9] = target: gpCam1-His (unknown Gammaproteobacterium); assay: as above

Nc1ncnc2c1ncn2[C@@H]1O[C@@H]2COP(=O)(O)O[C@H]3[C@@H](O)[C@H](n4cnc5c(N)ncnc54)O[C@@H]3COP(=O)(O)O[C@H]3[C@@H](O)[C@H](n4cnc5c(N)ncnc54)O[C@@H]3COP(=O)(O)O[C@H]3[C@@H](O)[C@H](n4cnc5c(N)ncnc54)O[C@@H]3COP(=O)(O)O[C@H]2[C@H]1O [cA4]
Kd [1]: 0.012 µM
Kd [2]: 3.74 µM
Kd [3]: 4 µM
Kd [4]: 4.5 µM
Kd [5]: 2.1 µM

MGSS–His6–TEV–NhCam1 (full-length NhCam1) (natural protein)
stoichiometry N [6]: 4

MvCam1-His (natural protein)
stoichiometry N [7]: 2 and 4

NhCam1–His (natural protein)
stoichiometry N [8]: 2 and 4

gpCam1-His (natural protein)
stoichiometry N [9]: 2 and 4
